Data set [1] is described as follows: Induction of cell cycle arrest in docetaxel-resistant human MDA-MB-231-DTR cells assessed as accumulation at subG1 phase at 5 uM incubated for 48 hrs by PI staining based flow cytometry analysis (reference value: 0.41%). Type of data set: functional.
Data set [2] relates to MDA-MB-231. Kind of data set: Inhibition of cell migration in docetaxel-resistant human MDA-MB-231-DTR cells assessed as downregulation of Snail expression level at 3 to 6 uM incubated for 24 hrs by Western blot analysis. Type of data set: functional, cell-based. The conditions noted are these: dose 3-6 µM. Background: In western blotting, separated proteins are transferred to a membrane and probed.

Data set [3] can be described thus: Antiproliferative activity against docetaxel-resistant human MDA-MB-231-DTR cells assessed as reduction in cell viability incubated for 72 hrs by sulforhodamine B assay. As to conditions: MDA-MB-231, 72 h. It is filed as functional, cell-based. (Sulforhodamine B stains cellular protein and so reports cell mass.)
Data set [4] can be described thus: Induction of cell cycle arrest in docetaxel-resistant human MDA-MB-231-DTR cells assessed as accumulation at G2/M phase at 5 uM incubated for 36 hrs by PI staining based flow cytometry analysis (reference value: 13.16%). It is filed as functional. (In general: In flow cytometry, cells or beads pass a laser one at a time.)
A short description of data set [5]: Induction of cell cycle arrest in docetaxel-resistant human MDA-MB-231-DTR cells assessed as accumulation at S phase at 10 uM incubated for 36 hrs by PI staining based flow cytometry analysis (reference value: 11.57%). It is filed as functional.
The subject of data set [6] is MDA-MB-231. Nature of the data set: Antitumor activity against docetaxel-resistant human MDA-MB-231-DTR cells xenografted in BALB/c mouse assessed as upregulation of E-cadherin level in tumor tissue at 10 mg/kg, ip daily for 12 days by Immunohistochemical analysis. The conditions noted are these: time 12.0 day. Type of data set: functional, organism-based.
The nature of data set [7]: Induction of cell cycle arrest in docetaxel-resistant human MDA-MB-231-DTR cells assessed as accumulation at G0/G1 phase at 10 uM incubated for 36 hrs by PI staining based flow cytometry analysis (reference value: 74.77%). It is filed as functional.
Data set [8] relates to MDA-MB-231. Nature of the data set: Inhibition of cell migration in docetaxel-resistant human MDA-MB-231-DTR cells at 3 to 6 uM incubated for 24 hrs by microscopy based wound healing assay. It is filed as functional. As to conditions: dose 3-6 µM.
In data set [9] the test system is MDA-MB-231. Kind of data set: Induction of apoptosis in docetaxel-resistant human MDA-MB-231-DTR cells assessed as upregulation of cleaved-caspase-9 expression level at 2.5 to 10 uM incubated for 48 hrs by Western blot analysis. As to conditions: dose 2.5-10 µM. Type of data set: functional, cell-based.
Data set [10] in a line: Induction of cell cycle arrest in docetaxel-resistant human MDA-MB-231-DTR cells assessed as accumulation at G2/M phase at 5 uM incubated for 12 hrs by PI staining based flow cytometry analysis (reference value: 13.54%). Type of data set: functional.
A short description of data set [11]: Induction of cell cycle arrest in docetaxel-resistant human MDA-MB-231-DTR cells assessed as accumulation at subG1 phase at 5 uM incubated for 36 hrs by PI staining based flow cytometry analysis (reference value: 0.41%). Type of data set: functional.
Data set [12] has as its target T1, Signal transducer and activator of transcription 1-alpha/beta (Homo sapiens) (UniProt P42224).
T1 sequence (whole entry): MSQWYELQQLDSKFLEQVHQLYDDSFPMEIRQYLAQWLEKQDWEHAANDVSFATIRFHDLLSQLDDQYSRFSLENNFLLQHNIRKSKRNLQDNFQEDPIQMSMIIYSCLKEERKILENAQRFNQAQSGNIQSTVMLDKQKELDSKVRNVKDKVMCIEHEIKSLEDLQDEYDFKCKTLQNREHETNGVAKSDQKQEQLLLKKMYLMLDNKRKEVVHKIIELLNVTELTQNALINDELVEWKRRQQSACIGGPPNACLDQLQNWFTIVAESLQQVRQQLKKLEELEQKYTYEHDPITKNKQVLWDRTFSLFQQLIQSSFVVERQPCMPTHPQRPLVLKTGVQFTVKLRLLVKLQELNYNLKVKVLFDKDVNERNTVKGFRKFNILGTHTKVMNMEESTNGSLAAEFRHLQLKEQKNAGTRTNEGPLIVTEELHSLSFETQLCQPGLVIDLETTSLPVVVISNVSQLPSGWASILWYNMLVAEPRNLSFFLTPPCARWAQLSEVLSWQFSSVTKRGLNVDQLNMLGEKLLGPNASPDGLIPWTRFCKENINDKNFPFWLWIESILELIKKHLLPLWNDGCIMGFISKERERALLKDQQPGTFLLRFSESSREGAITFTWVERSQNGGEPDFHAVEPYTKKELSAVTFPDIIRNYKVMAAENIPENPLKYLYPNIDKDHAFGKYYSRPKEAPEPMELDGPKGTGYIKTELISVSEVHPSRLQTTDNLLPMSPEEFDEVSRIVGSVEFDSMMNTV
Nature of the data set: Inhibition of STAT1 phosphorylation at S727 residue in docetaxel-resistant human MDA-MB-231-DTR cells assessed as decrease in phosphorylated STAT1 level at 2.5 to 10 uM incubated for 24 hrs by Western blot analysis. Type of data set: cell-based. The conditions noted are these: dose 2.5-10 µM.

Data set [13] has as its system MDA-MB-231. Nature of the data set: Induction of apoptosis in docetaxel-resistant human MDA-MB-231-DTR cells assessed as downregulation of Bcl2 expression level at 2.5 to 10 uM incubated for 48 hrs by Western blot analysis. Type of data set: functional, cell-based. As to conditions: dose 2.5-10 µM.
Data set [14] can be described thus: Antiproliferative activity against docetaxel-resistant human MDA-MB-231-DTR cells assessed as reduction in cell viability incubated for 72 hrs by MTT assay. As to conditions: MDA-MB-231, 72 h. Type of data set: functional, cell-based.
Data set [15] can be described thus: Toxicity in BALB/c mouse xenografted with docetaxel-resistant human MDA-MB-231-DTR cells assessed as body weight change at 5 mg/kg, ip daily for 12 days. It is filed as organism-based. The conditions noted are these: in vivo, 288 h, time 12 day.

The source of these data is ChEMBL document CHEMBL5380808, “Design, Synthesis, and Biological Activity of Marinacarboline Analogues as STAT3 Pathway Inhibitors for Docetaxel-Resistant Triple-Negative Breast Cancer” (J Med Chem, 2023).

Calls of active or inactive are those of the source. The rule behind the calls is not given here.

As to `O=C(NCCc1c[nH]c2ccccc12)c1cc2c([nH]c3ccccc32)c(C(=O)c2ccc(Br)cc2)n1`, the Activity in [1] was found to be 19.53%; in data set [4], 24.58%; in data set [5], 18.42%; in data set [7], 51.09%; in data set [10], 17.91%; in [11], 4.35%. Besides, the Activity entry in data set [15] is “Non-Toxic”. In [2], the inhibition entry is “Active”. For the same compound, the results for the 50% inhibitory concentration (IC50) in [3] and in data set [14] were 2.96 µM and 3.24 µM, respectively. The result in [6], in data set [9] and in data set [13] was Active. For the same compound, the inhibition entry in data set [8] is “Dose-Dependent Effect”. In data set [12], the inhibition entry is “inactive”.
